How the values were obtained:
[1] = system: Cl− secretion in mouse colon; experiment: Short-circuit current in freshly isolated mouse colon; conditions: read-out: EC50 for increase in short-circuit current in mouse colon
Excerpt: Short-circuit current measurement.

[2] = Ocular toxicity after chronic topical dosing (slit-lamp, lissamine green staining); format: in vivo; conditions: chronically treated mice
Method: (§1) To assess corneal epithelial disruption, 5 μL of lissamine green (LG) dye (1%) was applied to the ocular surface of isofluorane-anesthetized mice. Photographs of the eye were taken using a Nikon Digital camera adapted to an Olympus Zoom Stereo Microscope (Olympus, Center Valley, Pa., USA). Each corneal quadrant was scored on a 3-point scale by one blinded, trained observer, with the extent of staining in each quadrant classified as: 0, no staining; 1, sporadic (involving <25% of the total surface) staining; grade 2, diffuse punctate staining (25-75%); and grade 3, coalesced punctate staining (>75%). The total grade is reported as the sum of scores from all four quadrants, ranging from 0 to 12.
as §1, with “Lissamine green staining. To” for “To”, “(≥75%).” for “(>75%).”

C3H/HeJ mice = experiment: Genetic mouse model of chronic constipation (C3H/HeJ); format: in vivo
Method: The efficacy of orally administered CFTRact-J027 (10 mg/kg) was also tested in a genetically constipated mouse strain (15) (C3H/HeJ, age 8-11 weeks) and their wildtype counterparts (C3H/HeOuJ, age 8-11 weeks). Mice were placed in metabolic cages after CFTRact-J027 or vehicle administration at zero time and stool was collected for 4 h. Stool weight, pellet number and water content were determined as described above. Whole-gut transit time was measured to assess gut motility, in which mice treated with CFTRact-J027 (10 mg/kg, ip) or vehicle at zero time were given with 100 μL blue marker (5% Evans blue, 5% gum Arabic) orally. The time of blue dye appearance in stool was determined. All experiments in C3H/HeJ and C3H/HeOuJ mice were done in paired animals to minimize variability.

[3] = In vitro metabolic stability in mouse liver microsomes; format: in vitro ADME; conditions: NADPH
Method: (§2) CFTRact-J027 (5 μM) was incubated for specified times at 37° C. with mouse liver microsomes (1 mg protein/ml; Sigma-Aldrich) in potassium phosphate buffer (100 mM) containing 1 mM NADPH, as described. The mixture was then chilled on ice, and 0.5 ml of ice-cold ethyl acetate was added. Samples were centrifuged for 15 min at 3000 rpm, the supernatant evaporated to dryness, and the residue was dissolved in 100 μL mobile phase (acetonitrile:water, 3:1) for LC/MS and assayed as described above.
as §2, with “In vitro metabolic stability. CFTRact-J027” for “CFTRact-J027”
In vitro metabolic stability. Test compound (at 5 μM) was incubated for specified times at 37° C. with mouse liver microsomes (1 mg protein/ml; Sigma-Aldrich, St. Louis, Mo.) in potassium phosphate buffer containing 1 mM NADPH, as described. Following ethyl acetate extraction, non-metabolized parent compound was assayed by LC/MS.

[4] = 7-day oral administration toxicity study in mice; format: in vivo, mouse
Excerpt: Chronic administration and toxicity studies.

[5] = 10 mg/kg orally once per day, 7 days, mean

Q: Which EC50 [1] does the source give for Nc1ccc([N+](=O)[O-])cc1-c1nc2ccccc2n(Cc2ccccc2)c1=O [CFTRact-J027, 3-(2-amino-5-nitrophenyl)-1-benzylquinoxalin-2(1H)-one] here?
A: ~300 nM

Q: What about the “LG staining of cornea and conjunctiva” value [2] of the same compound?
A: no corneal or conjunctival epithelial disruption

Q: What about the “ocular toxicity (slit-lamp evaluation)” value ([2]; topical three times daily, two weeks) of the same compound?
A: no signs of ocular toxicity

Q: And the “whole-gut transit time in C3H/HeJ mice” value (C3H/HeJ mice; 10 mg/kg ip)?
A: normalized the increased whole-gut transit time

Q: And the “4-h stool weight, pellet number and water content” value (C3H/HeJ mice; 10 mg/kg oral, C3H/HeJ mice)?
A: increased 4-h stool weight, pellet number and water content in C3H/HeJ mice to the level of wildtype controls

Q: What about the “stool parameters and whole-gut transit time in wildtype control mice” value (C3H/HeJ mice; C3H/HeOuJ mice) of the same compound?
A: did not affect stool parameters or whole-gut transit time

Q: And the “compound metabolized at 60 min” value ([3]; mouse hepatic microsomes)?
A: ~100%

Q: What about the “original compound remaining at 60 min” value ([3]; mouse liver microsomes) of the same compound?
A: 7%

Q: What about the half-life at 5 μM ([3]; mouse, liver microsomes, 5 μM, read-out: elimination half-life in mouse liver microsomes) of the same compound?
A: 21 min

Q: And the “toxicity after chronic administration” value ([4]; 10 mg/kg oral)?
A: without apparent toxicity

Q: And the ALP [4, 5]?
A: 53 U/L

Q: What about the ALT [4, 5] of the same compound?
A: 44 U/L

Q: What about the AST [4, 5] of the same compound?
A: 105 U/L

Q: What about the Albumin [4, 5] of the same compound?
A: 2.9 g/dL

Q: And the BUN [4, 5]?
A: 18.4 mg/dL

Q: What about the Bicarbonate [4, 5] of the same compound?
A: 16 mmol/L

Q: What about the CK [4, 5] of the same compound?
A: 312 U/L

Q: And the Calcium [4, 5]?
A: 8.5 mg/dL

Q: What about the Chloride [4, 5] of the same compound?
A: 115 mmol/L

Q: And the Cholesterol [4, 5]?
A: 121 mg/dL

Q: What about the Creatinine [4, 5] of the same compound?
A: 0.2 mg/dL

Q: What about the Globulin [4, 5] of the same compound?
A: 2.2 g/dL

Q: And the Glucose [4, 5]?
A: 164 mg/dL

Q: What about the Hemoglobin [4, 5] of the same compound?
A: 12.8 g/dL

Q: And the Leukocytes [4, 5]?
A: 1.9 ± 10^3/μL

Q: And the Phosphorus [4, 5]?
A: 6.8 mg/dL

Q: And the Potassium [4, 5]?
A: 4.4 mmol/L

Q: What about the Sodium [4, 5] of the same compound?
A: 151 mmol/L

Q: What about the Thrombocytes [4, 5] of the same compound?
A: 900 ± 10^3/μL

Q: And the Total bilirubin [4, 5]?
A: 0.1 mg/dL

Q: What about the Total protein [4, 5] of the same compound?
A: 5.2 g/dL

Q: And the lung water content ([4]; 7-day treated mice)?
A: normal lung water content

Q: What about the “major serum chemistry and blood parameters” value ([4]; 7-day treated mice) of the same compound?
A: did not affect the major serum chemistry and blood parameters

Q: And the “body weight and airway/lung fluid accumulation” value ([4]; 7-day treated mice, 10 mg/kg oral)?
A: nor did it change body weight or produce airway/lung fluid accumulation
